US5157049A, “Method of treating cancers sensitive to treatment with water soluble derivatives of taxol” (The United States of America as represented by the …, priority 1991, dated 1992)
“Also recorded” adds a separate entry of the source. Structures can show the parent of a compound that is named as a salt.

Legend:
[1] = water; background statement; cited from earlier work
[2] = a number of test systems; cited from earlier work
B16 Melanoma = assay: Antitumor activity in the B16 melanoma system (NCI screen); details: B16, Q01D × 09
Experimental: (§1) Another approach to make basic derivatives is based on the concept of taking an existing hydrolysable derivative and further modifying it to form a derivative that allows for stepwise hydrolysis.
Antitumor Activity in the B16 Melanoma System^a
(§2) ^a Screening was carried out under the auspices of the National Cance
(§3) Institute. For detailed explanations of procedures and data, see
(§4) Instruction 14, Screening Data Summary Interpretation and Outline of
(§5) Current Screen, Drug Evaluation Branch, Developmental Therapeutics
(§6) Program, Division of Cancer Treatment, National Cancer Institute,
(§7) Bethesda, Maryland 20892.
(§8) ^b Q01D × 09. Single dose for 9 days; given in milligrams per
(§9) kilogram body weight per injection.
(§10) ^c Abbreviations: survivors day 4, live animals on the fourth day of
(§11) testing/total animal; wt diff, g (T - C), the difference in body weight i
(§12) grams between test and control animals; % T/C, the median lifetime of tes
(§13) animals divided by the median lifetime of control animals, times 100; for
(§14) the solid tumor system % T/C is 100 × (change in treated tumor wt 1
(§15) day 11 - day 0)/change in control tumor wt.) if the tumor grows or 100
(§16) × (change in treated tumor wt./initial treated tumor wt.) if the
(§17) tumor regresses; cures, number of live animals on the last day of
(§18) evaluation for the B16 melanoma system (day 60) or number of animals
(§19) without measurable tumor on day 11 for the MX1 mammary tumor system.

tubulin = details: mechanism of action, Horwitz; cited from earlier work
[3] = numerous studies; cited from earlier work
Aqueous solubility = details: water
[4] = tested on: Human MX-1 Mammary Tumor Xenograft; assay: Human MX-1 mammary tumor xenograft (3MBG5) assay; details: MX-1 xenograft; for % T/C (tumor weight change): day 11
Experimental: as §1, §2, §3, §4, §5, §6, §7, §8, §9, §10, §11, §12, §13, §14, §15, §16, §17, §18, §19

CC(=O)O[C@H]1C(=O)[C@@]2(C)[C@H]([C@H](OC(=O)c3ccccc3)[C@]3(O)C[C@H](OC(=O)[C@H](O)[C@@H](NC(=O)c4ccccc4)c4ccccc4)C(C)=C1C3(C)C)[C@]1(OC(C)=O)CO[C@@H]1C[C@@H]2O [Taxol, taxol]
aqueous solubility of taxol (in words) [1]: essentially insoluble in water; also recorded: extremely low aqueous solubility | in vivo activity (in words) [2]: strong in vivo activity | % T/C (median lifetime) (B16 Melanoma; 5 mg/kg per injection): 175% | Survivors Day 4 (B16 Melanoma; 5 mg/kg per injection): 10/10 | WT Diff, g (T - C) (B16 Melanoma; 5 mg/kg per injection): -0.2 g | % T/C (median lifetime) (B16 Melanoma; 10 mg/kg per injection): 139% | Survivors Day 4 (B16 Melanoma; 10 mg/kg per injection): 10/10 | WT Diff, g (T - C) (B16 Melanoma; 10 mg/kg per injection): 0 g | % T/C (median lifetime) (B16 Melanoma; 20 mg/kg per injection): 96% | Survivors Day 4 (B16 Melanoma; 20 mg/kg per injection): 10/10 | WT Diff, g (T - C) (B16 Melanoma; 20 mg/kg per injection): -0 g | % T/C (median lifetime) (B16 Melanoma; 40 mg/kg per injection): TOXIC | Survivors Day 4 (B16 Melanoma; 40 mg/kg per injection): 10/10 | WT Diff, g (T - C) (B16 Melanoma; 40 mg/kg per injection): -1.2 g | promotion of tubulin assembly (in words) (tubulin): promoting tubulin assembly into stable aggregated structures which resist depolymerization by dilution, calcium ion, cold, and a number of microtubule-disrupting drugs | cytotoxicity (in words) [3]: highly cytotoxic

CC(=O)O[C@H]1C(=O)[C@@]2(C)[C@H]([C@H](OC(=O)c3ccccc3)[C@]3(O)C[C@H](OC(=O)[C@H](OC(=O)CCCC(=O)NCCCN(C)C)[C@@H](NC(=O)c4ccccc4)c4ccccc4)C(C)=C1C3(C)C)[C@]1(OC(C)=O)CO[C@@H]1C[C@@H]2O [Example 25, HCl-Salt]
aqueous solubility (in words) (Aqueous solubility): good solubility | solubility (Aqueous solubility): ~10000 µg/mL | % T/C (median lifetime) (B16 Melanoma; 1.2 mg/kg per injection): 123% | Survivors Day 4 (B16 Melanoma; 1.2 mg/kg per injection): 10/10 | WT Diff, g (T - C) (B16 Melanoma; 1.2 mg/kg per injection): -0.1 g | % T/C (median lifetime) (B16 Melanoma; 2.5 mg/kg per injection): 129% | Survivors Day 4 (B16 Melanoma; 2.5 mg/kg per injection): 10/10 | WT Diff, g (T - C) (B16 Melanoma; 2.5 mg/kg per injection): -0.1 g | % T/C (median lifetime) (B16 Melanoma; 5 mg/kg per injection): 188% | Survivors Day 4 (B16 Melanoma; 5 mg/kg per injection): 10/10 | WT Diff, g (T - C) (B16 Melanoma; 5 mg/kg per injection): 0.1 g | % T/C (median lifetime) (B16 Melanoma; 10 mg/kg per injection): 352% | Survivors Day 4 (B16 Melanoma; 10 mg/kg per injection): 10/10 | WT Diff, g (T - C) (B16 Melanoma; 10 mg/kg per injection): -0.1 g | cures (live animals day 60) (B16 Melanoma; 10 mg/kg per injection): 5 | % T/C (median lifetime) (B16 Melanoma; 20 mg/kg per injection): 352% | Survivors Day 4 (B16 Melanoma; 20 mg/kg per injection): 10/10 | WT Diff, g (T - C) (B16 Melanoma; 20 mg/kg per injection): 0 g | cures (live animals day 60) (B16 Melanoma; 20 mg/kg per injection): 6 | Survivors Day 4 ([4]; 2.5 mg/kg per injection): 6/6 | WT Diff, g (T - C) ([4]; 2.5 mg/kg per injection): -0.6 g | % T/C (tumor weight change) ([4]; 2.5 mg/kg per injection): 22% | Survivors Day 4 ([4]; 5 mg/kg per injection): 6/6 | WT Diff, g (T - C) ([4]; 5 mg/kg per injection): 0.1 g | % T/C (tumor weight change) ([4]; 5 mg/kg per injection): 1% | Survivors Day 4 ([4]; 10 mg/kg per injection): 6/6 | WT Diff, g (T - C) ([4]; 10 mg/kg per injection): -2.2 g | % T/C (tumor weight change) ([4]; 10 mg/kg per injection): 1% | Survivors Day 4 ([4]; 20 mg/kg per injection): 5/6 | WT Diff, g (T - C) ([4]; 20 mg/kg per injection): 0.3 g | cures (animals without measurable tumor on day 11) ([4]; 20 mg/kg per injection): 5 | % T/C (tumor weight change) ([4]; 20 mg/kg per injection, negative = regression): -100% | Survivors Day 4 ([4]; 40 mg/kg per injection): 5/6 | WT Diff, g (T - C) ([4]; 40 mg/kg per injection): -5.9 g | cures (animals without measurable tumor on day 11) ([4]; 40 mg/kg per injection): 5 | % T/C (tumor weight change) ([4]; 40 mg/kg per injection, negative = regression): -100%
